In patent US4153709A, “N-Heterocyclic ureas as immune regulants” (Eli Lilly and Company, priority 1977, dated 1979) one finds minimal effective dose data, which are given here for 67 compounds.

The experiment deals with antibody response to sheep blood cells (hemaglutination titer). As to the kind of experiment: Immune regulating test: suppression of hemaglutination titer by 4-fold factor in mice (i.p. drug, i.p. sheep blood cells), Tables 1-15. Type of experiment: in vivo, Swiss mice. As to conditions: Mus musculus, ip, 192 h, × 3, intraperitoneal, minimum dose to suppress the hemaglutination titer by a 4-fold factor, 8 days after antigen, read-out: Immuno-Suppressant ED4-Fold. The procedure: The ability of compounds according to the above formulas to alter immune mechanisms in a host animal was measured by their activity according to the following test. Groups of five 20-gram Swiss mice were injected intraperitoneally with standardized suspensions of an antigen--in this instance sheep blook cells. […] Eight days after injection of the antigen, the mice were bled and the sera from each group pooled. Antibody determinations were made on the serum pools by a hemaglutination pattern procedure and comparisons made between treated and control animals. In Tables 1-18 which follow, the activity of the compounds listed therein is given in terms of the minimum dose of drug necessary to suppress the hemaglutination titer by a 4-fold factor in the treated mice as compared with control titers.
For `CN(C(=O)Nc1cccc(Cl)c1)c1nc2ccccc2[nH]1` [Table 7: m-chlorophenyl, H], the minimal effective dose is 25 mg/kg.

As to `O=C(Nc1cccc(Cl)c1)Nc1nc2c(ccc3ccccc32)s1` [Table 14: m-chlorophenyl], the minimal effective dose was less than 1.6 mg/kg. As to `O=C(Nc1cccc(C(F)(F)F)c1)Nc1nc2c(ccc3ccccc32)s1` [Table 14: m-trifluoromethylphenyl], the minimal effective dose is less than 6.2 mg/kg. Turning to `Cc1ccc(NC(=O)Nc2nc3ccccc3s2)cc1` [Table 11: p-tolyl, H, S], the minimal effective dose was 100 mg/kg. With `Cc1cc2nc(NC(=O)Nc3ccccc3)[nH]c2cc1C` [Table 5: phenyl, CH3, CH3], the minimal effective dose was found to be 12.5 mg/kg.

For `COc1ccc2nc(NC(=O)Nc3cccc4ccccc34)sc2c1` [Table 11: α-naphthyl, 6-CH3 O, S], the minimal effective dose is less than 50 mg/kg. As for `O=C(Nc1ccc(Br)cc1)Nc1nc2ccc3ccccc3c2s1` [Table 15: p-bromophenyl], the minimal effective dose was determined as 50 mg/kg. Consider `Cn1c(NC(=O)Nc2cccc(Cl)c2)nc2ccccc21` [Table 8: m-chlorophenyl, methyl], for which the minimal effective dose was 6.2 mg/kg. Turning to `O=C(Nc1nc2cc(Cl)ccc2[nH]1)Nc1ccccc1F` [Table 2: o-fluorophenyl], the minimal effective dose was less than 100 mg/kg. `Cc1cc2nc(NC(=O)Nc3cc(Cl)ccc3Cl)sc2cc1C`: the minimal effective dose was less than 12.5 mg/kg. With `O=C(Nc1ccc(Cl)cc1)Nc1nc2ccccc2s1` [Table 11: p-chlorophenyl, H, S], the minimal effective dose is less than 6.2 mg/kg. Under `O=C(Nc1ccccc1)Nc1nc2cc(C(F)(F)F)ccc2[nH]1` [Table 4: phenyl, CF3] stands 12.5 mg/kg; under `Cn1c(NC(=O)Nc2ccccc2)nc2ccccc21` [Table 8: phenyl, methyl], 3.1 mg/kg. `O=C(Nc1ccc(F)cc1)Nc1nc2cc(Cl)ccc2[nH]1` [Table 2: p-fluorophenyl]: the minimal effective dose is less than 12.5 mg/kg. Consider `O=C(Nc1nc2cc(Cl)c(Cl)cc2[nH]1)Nc1cccc2ccccc12` [Table 5: α-naphthyl, Cl, Cl], for which the minimal effective dose is more than 12.5 mg/kg. As for `O=C(Nc1cccc2ccccc12)Nc1nc2ccccc2n1-c1ccccc1` [Table 8: α-naphthyl, phenyl], the minimal effective dose stood at 100 mg/kg. `Cc1cc2nc(NC(=O)Nc3ccc(Br)cc3)sc2cc1C` [Table 11: p-bromophenyl, 5,6-dimethyl, S]: the minimal effective dose worked out at 100 mg/kg.

Turning to `O=C(Nc1ccc(F)cc1)Nc1nc2c(ccc3ccccc32)[nH]1` [Table 10: p-fluorophenyl], the minimal effective dose was found to be 25 mg/kg. For `Cc1cc2nc(NC(=O)Nc3ccc(Cl)cc3)[nH]c2cc1C` [Table 5: p-chlorophenyl, CH3, CH3], the minimal effective dose stood at 12.5 mg/kg. In the case of `Cc1cc2nc(NC(=O)Nc3ccccc3F)[nH]c2cc1C` [Table 5: o-fluorophenyl, CH3, CH3], the minimal effective dose worked out at 100 mg/kg. Consider `Cn1c(NC(=O)Nc2ccc(Cl)cc2)nc2ccccc21` [Table 8: p-chlorophenyl, methyl], for which the minimal effective dose was more than 50 mg/kg. Under `CN(C(=O)Nc1cccc2ccccc12)c1nc2ccccc2s1` [Table 12: α-naphthyl] stands 50 mg/kg.

Regarding `Cc1cc2nc(NC(=O)Nc3cccc4ccccc34)[nH]c2cc1C` [Table 5: α-naphthyl, CH3, CH3], the minimal effective dose amounted to 50 mg/kg. Regarding `O=C(Nc1cccc(C(F)(F)F)c1)Nc1nc2ccccc2[nH]1` [Table 1: m-trifluoromethylphenyl, H], the minimal effective dose turned out to be 100 mg/kg. Under `Cc1cc2nc(NC(=O)Nc3ccccc3C)[nH]c2cc1C` [Table 5: o-tolyl, CH3, CH3] stands 12.5 mg/kg; under `Cc1cc2nc(NC(=O)Nc3ccccc3C)sc2cc1C` [Table 11: o-tolyl, 5,6-dimethyl, S], less than 25 mg/kg. In the case of `O=C(Nc1ccc(Cl)cc1)Nc1nc2ccccc2[nH]1` [Table 1: p-chlorophenyl, H], the minimal effective dose came out at 12.5 mg/kg.

As to `Cc1cccc(NC(=O)Nc2nc3cc(C)c(C)cc3s2)c1` [Table 11: m-tolyl, 5,6-dimethyl, S], the minimal effective dose came to 25 mg/kg. Take `Cc1cc2nc(NC(=O)Nc3ccc(Cl)cc3)sc2cc1C`: the minimal effective dose was 25 mg/kg. On to `Cc1cc2nc(NC(=O)Nc3ccccc3Cl)sc2cc1C`, for which the minimal effective dose was less than 100 mg/kg. In the case of `O=C(Nc1cccc(Cl)c1)Nc1nc2ccccc2[nH]1` [Table 1: m-chlorophenyl, H], the minimal effective dose stood at 3.1 mg/kg. For `CCOC(=O)c1ccc2[nH]c(NC(=O)Nc3ccc(F)cc3)nc2c1` [Table 3: p-fluorophenyl], the minimal effective dose was determined as 25 mg/kg.

In the case of `CCOC(=O)c1ccc2[nH]c(NC(=O)Nc3ccc(Cl)cc3)nc2c1` [Table 3: p-chlorophenyl], the minimal effective dose turned out to be 50 mg/kg.

In the case of `Cn1c(NC(=O)Nc2cccc3ccccc23)nc2ccccc21` [Table 8: α-naphthyl, methyl], the minimal effective dose was more than 50 mg/kg. Take `O=C(Nc1ccc(Br)cc1)Nc1nc2c(ccc3ccccc32)s1` [Table 14: p-bromophenyl]: the minimal effective dose was less than 50 mg/kg. For `CCOC(=O)c1ccc2[nH]c(NC(=O)Nc3ccccc3Cl)nc2c1` [Table 3: o-chlorophenyl], the minimal effective dose was determined as 0.4 mg/kg.

Turning to `O=C(Nc1ccccc1)Nc1nc2c(ccc3ccccc32)[nH]1` [Table 10: phenyl], the minimal effective dose is 50 mg/kg. As to `O=C(Nc1nc2cc3ccccc3cc2[nH]1)Nc1cccc2ccccc12` [Table 9: α-naphthyl], the minimal effective dose was determined as 50 mg/kg.

`CCOC(=O)c1ccc2[nH]c(NC(=O)Nc3ccc(C)cc3)nc2c1` [Table 3: p-tolyl]: the minimal effective dose amounted to 100 mg/kg. The result for `Cc1cc2nc(NC(=O)Nc3cccc(Cl)c3)[nH]c2cc1C` [Table 5: m-chlorophenyl, CH3, CH3] reads 800 mg/kg; that for `COc1ccccc1NC(=O)Nc1nc2ccccc2s1` [Table 11: o-anisyl, H, S], 50 mg/kg; that for `Cc1ccccc1NC(=O)Nc1nc2cc(Cl)ccc2[nH]1` [Table 2: o-tolyl], 100 mg/kg. With `Cc1ccccc1NC(=O)Nc1nc2ccccc2s1` [Table 11: o-tolyl, H, S], the minimal effective dose is less than 50 mg/kg.

For `O=C(Nc1ccc(F)cc1)Nc1nc2c(ccc3ccccc32)s1` [Table 14: p-fluorophenyl], the minimal effective dose came out at 12.5 mg/kg.

As to `O=C(Nc1cccc(C(F)(F)F)c1)Nc1nc2ccccc2s1` [Table 11: m-trifluoromethylphenyl, H, S], the minimal effective dose is less than 50 mg/kg. `CN(C(=O)Nc1ccccc1)c1nc2ccccc2[nH]1` [Table 7: phenyl, H]: the minimal effective dose was found to be 50 mg/kg.

With `CCOC(=O)c1ccc2[nH]c(NC(=O)Nc3cccc(Cl)c3)nc2c1` [Table 3: m-chlorophenyl], the minimal effective dose was found to be 50 mg/kg.

On to `Cc1cc2nc(NC(=O)Nc3ccccc3F)sc2cc1C`, for which the minimal effective dose is less than 1.6 mg/kg. For the compound `O=C(Nc1cccc(Cl)c1)Nc1nc2cc(Cl)ccc2o1` [Table 11: m-chlorophenyl, 5-Cl, O], the minimal effective dose was found to be 400 mg/kg. For the compound `CN(C(=O)Nc1cccc2ccccc12)c1nc2ccccc2[nH]1` [Table 7: α-naphthyl, H], the minimal effective dose was 25 mg/kg.

For the compound `O=C(Nc1nc2ccc3ccccc3c2s1)Nc1cccc2ccccc12` [Table 15: α-naphthyl], the minimal effective dose worked out at 0.4 mg/kg. Take `COc1ccc2nc(NC(=O)Nc3ccc(Cl)cc3)sc2c1` [Table 11: p-chlorophenyl, 6-CH3 O, S]: the minimal effective dose was less than 50 mg/kg. With `COc1ccc2nc(NC(=O)Nc3cccc(C)c3)sc2c1` [Table 11: m-tolyl, 6-CH3 O, S], the minimal effective dose was less than 25 mg/kg. With `Cc1cc2nc(NC(=O)Nc3ccc(Br)cc3)[nH]c2cc1C` [Table 5: p-bromophenyl, CH3, CH3], the minimal effective dose was 12.5 mg/kg. On to `O=C(Nc1ccccc1)Nc1nc2c([N+](=O)[O-])cccc2[nH]1` [Table 6: 4(7), phenyl], for which the minimal effective dose was 25 mg/kg. In the case of `O=C(Nc1nc2c(ccc3ccccc32)s1)Nc1cccc2ccccc12` [Table 14: α-naphthyl], the minimal effective dose is 3.1 mg/kg. In the case of `Cc1cccc(NC(=O)Nc2nc3cc(C)c(C)cc3[nH]2)c1` [Table 5: m-tolyl, CH3, CH3], the minimal effective dose was found to be 12.5 mg/kg. In the case of `O=C(Nc1nc2ccccc2s1)Nc1cc(Cl)ccc1Cl` [Table 11: 2,5-dichlorophenyl, H, S], the minimal effective dose came out at 12.5 mg/kg. Under `Cc1cc2nc(NC(=O)Nc3cc(Cl)ccc3Cl)[nH]c2cc1C` [Table 5: 2,5-dichlorophenyl, CH3, CH3] stands less than 25 mg/kg; under `O=C(Nc1nc2ccccc2[nH]1)Nc1ccccc1F` [Table 1: o-fluorophenyl, H], 1.6 mg/kg. Under `COc1ccc2nc(NC(=O)Nc3ccccc3Cl)sc2c1` [Table 11: o-chlorophenyl, 6-CH3 O, S] stands less than 50 mg/kg; under `O=C(Nc1nc2ccccc2[nH]1)Nc1ccccc1Cl` [Table 1: o-chlorophenyl, H], 12.5 mg/kg. In the case of `COc1ccc(NC(=O)Nc2nc3cc(C)c(C)cc3[nH]2)cc1` [Table 5: p-anisyl, CH3, CH3], the minimal effective dose stood at 12.5 mg/kg. As to `O=C(Nc1nc2c(ccc3ccccc32)[nH]1)Nc1cccc2ccccc12` [Table 10: α-naphthyl], the minimal effective dose was more than 6.2 mg/kg. For the compound `O=C(Nc1ccccc1)Nc1nc2ccc3ccccc3c2s1` [Table 15: phenyl], the minimal effective dose was found to be 0.8 mg/kg. Under `O=C(Nc1ccc(F)cc1)Nc1nc2ccccc2s1` [Table 11: p-fluorophenyl, H, S] stands less than 25 mg/kg. The result for `O=C(Nc1nc2c(ccc3ccccc32)s1)Nc1cc(Cl)ccc1Cl` [Table 14: 2,5-dichlorophenyl] reads 100 mg/kg.
